The test system of one test is plasma TAGs. The following applies: 20 non-diabetic individuals, after four doses of metformin 500 mg over two days (FIG. 6C). How it is done: (§1) Pharmacologic studies were performed as follows. […] After a washout period of 6 days, subjects received metformin 500 mg twice daily for two days in order to reduce hepatic gluconeogenesis, and then underwent a 75 g OGTT in the presence of metformin. […] From the first 164 subjects completing the protocol, 20 participants were selected who represented both high and low ends of the HOMA-IR range.
(§2) OGTT causes an acute rise in plasma glucose, which then triggers a rise in insulin.
(§3) After a washout period of 6 days, these 20 individuals were then administered four doses of metformin (500 mg) over two days. Although chronic metformin use decreases insulin resistance, its acute effect is to decrease hepatic glucose output, and as a result, lower plasma insulin (10).

For test [1] the following is noted: 20 non-diabetic individuals, after four doses of metformin 500 mg over two days; baseline 95 mg/dL; p=0.022. The protocol:
as §1, §2, §3

From patent US20120214821A1, “Lipidomic Biomarkers of Diabetes” (THE BROAD INSTITUTE, INC., priority 2011, published 2012) come the findings set out here.

As for `CN(C)C(=N)N=C(N)N` [metformin], the “TAG response (change of plasma TAGs by carbon number and double bond content)” value in the test with plasma TAGs is “an increase in TAGs of lower carbon number and double bond content, and a decrease in TAGs of higher carbon number and double bond content”. Further, in test [1], the mean plasma glucose is reported as 86 mg/dL.
